In US20230158025A1 (UNIVERSITY OF UTAH RESEARCH FOUNDATION, priority 2020, published 2023):
Where “and” joins values, the source holds several entries; their conditions need not be identical. Identical values can stand only once. Like-named read-outs stand apart in the source and are kept apart here.

Legend:
hGALK1m = biological target: T1, hGALK1m (Homo sapiens, UniProt P51570, E253A/K252A); assay: in vitro hGALK1 activity assay of the structure-based optimisation (Example 12, Tables 17-20); format: biochemical
T1 construct: made in house; host or cells: E. coli HMS174
Experimental: In vitro hGALK1 activity assays were performed as previously described. Liu et al., Bioorg. Med. Chem. Lett. 25(3): 721-727 (2015), which is incorporated by reference herein for the specific teachings thereof. The biochemical assay was performed by coupling the activity of recombinant human or mouse GALK1 to the Kinase-Glo Plus luminescent ATP detection kit, using ATP depletion as a measure of GALK1 turnover. Specifically, three μL/well of ATP substrate solution (35 μM ATP) in assay buffer (20 mM HEPES pH 8.0, 5 mM MgCl2, 60 mM NaCl, 1 mM DTT, 0.01% BSA final concentration) was dispensed into 1536-well assay plates (Greiner, white solid-bottom medium-binding plates). Aliquots of compound (23 nL solubilized in DMSO) were transferred to the assay plates using a Kalypsys 1536-well pintool such that 11 concentrations with 1/3 dilutions ranging from 57.4 μM-0.97 nM are tested. One μL/well of GALK-galactose solution (5 nM GALK1, 100 μM galactose) in assay buffer was then added, yielding a final reaction volume of 4 μL/well. Following a 1-hour room temperature incubation, 4 μL of Kinase-Glo Plus detection reagent was added to provide an ATP-dependent luminescent readout (final assay volume: 8 μL/well). Luminescence was detected using a ViewLux plate reader (PerkinElmer) after a 10-minute incubation, using a 1 second exposure time and 2× binning.
The in vitro hGALK1 activity assay was performed as previously described. Liu et al., Bioorg. Med. Chem. Lett. 25(3): 721-727 (2015). For the measurement of cellular Gal-1P reduction, compounds at different concentrations were added to cultured patient fibroblast at 80% confluency. After incubating the compounds for 16 hours, 10 mM galactose was added to the culture. After another 4 hours, cells were washed with cold PBS buffer 3× and harvested for gal-1P measurement, according to the previously published method. Liu et al., Bioorg. Med. Chem. Lett. 25(3): 721-727 (2015).

recombinant human GALK1 = recombinant human GALK1 (Homo sapiens, UniProt P51570); assay: hGALK1 biochemical activity assay (Kinase-Glo Plus, ATP depletion)
How it was run: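 Recombinant human or mouse GALK1 (5 nM, with 100 μM galactose, in the added enzyme solution) was run with ATP (35 μM in the substrate solution) in HEPES pH 8.0 buffer. Compounds were tested at 11 1/3-step concentrations from 57.4 μM to 0.97 nM. After 1 h at room temperature, remaining ATP was read by Kinase-Glo Plus luminescence.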

[1] = aqueous kinetic solubility
[2] = rat microsomal stability (RLM); conditions: for half-life: rat, rat liver microsomes
recombinant mouse GALK1 = recombinant mouse GALK1 (Mus musculus, UniProt Q9R0N0); assay: mGALK1 biochemical activity assay (Kinase-Glo Plus, ATP depletion)
How it was run: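 Recombinant GALK1 (5 nM) with 100 μM galactose; GALK1 turnover read as ATP depletion by Kinase-Glo Plus luminescence. Reaction ran 1 h at room temperature before detection reagent was added.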

[3] = PAMPA, ADME P: PAMPA permeability (class), Tables 17-19, class probably colour-coded, colour lost
[4] = Tables 18-19, read-out: Max Response (%)
[5] = Tables 18-20 and text of Example 12
[6] = Tables 2-15, 35 μM ATP, 100 μM galactose, 1 h, bracketed figure after some values (e.g. −1.2) is undefined and not reported, read-out: hGALK IC50
[7] = recombinant human GALK1, Kinase-Glo Plus ATP depletion, read-out: hGALK
[8] = Tables 2-15, 35 μM ATP, 100 μM galactose, 1 h, bracketed figure after some values is undefined and not reported, read-out: mGALK IC50
[9] = recombinant mouse GALK1, Kinase-Glo Plus ATP depletion, read-out: mGALK
[10] = PAMPA, Perm. (1 × 10^−6 cm/sec)
[11] = 1 h, Table 17, read-out: Efficacy
[12] = Tables 18-19 and text of Example 12

T1 sequence (P51570 whole entry K252A/E253A): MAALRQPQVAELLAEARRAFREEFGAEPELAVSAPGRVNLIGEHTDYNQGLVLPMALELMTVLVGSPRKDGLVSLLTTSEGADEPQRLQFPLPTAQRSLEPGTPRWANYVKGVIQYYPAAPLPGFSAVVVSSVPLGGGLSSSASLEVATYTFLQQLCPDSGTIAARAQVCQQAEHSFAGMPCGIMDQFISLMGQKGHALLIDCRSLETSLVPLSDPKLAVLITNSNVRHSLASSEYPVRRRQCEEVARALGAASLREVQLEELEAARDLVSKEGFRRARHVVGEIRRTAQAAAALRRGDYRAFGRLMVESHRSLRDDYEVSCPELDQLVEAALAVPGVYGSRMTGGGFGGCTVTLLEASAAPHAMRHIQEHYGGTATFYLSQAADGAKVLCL
Chain of recombinant mouse GALK1 (Q9R0N0 whole entry): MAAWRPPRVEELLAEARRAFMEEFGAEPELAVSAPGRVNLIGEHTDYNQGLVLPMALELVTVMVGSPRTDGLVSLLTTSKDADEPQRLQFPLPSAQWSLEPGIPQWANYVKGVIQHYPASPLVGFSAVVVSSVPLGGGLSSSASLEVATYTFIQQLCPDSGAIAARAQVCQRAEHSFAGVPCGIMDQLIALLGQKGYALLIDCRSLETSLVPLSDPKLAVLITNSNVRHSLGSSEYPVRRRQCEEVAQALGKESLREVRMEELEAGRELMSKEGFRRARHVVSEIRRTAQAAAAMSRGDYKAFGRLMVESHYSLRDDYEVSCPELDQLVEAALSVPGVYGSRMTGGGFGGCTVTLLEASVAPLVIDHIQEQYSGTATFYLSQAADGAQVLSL
Chain of recombinant human GALK1 (P51570 whole entry): as the sequence (P51570 whole entry K252A/E253A) above, with A252K, A253E counted along it

SMILES | Papp (PAMPA permeability; [3]) [×10⁻⁶ cm/s] | change of potency versus parent compound (in words) (hGALK1m) | Emax (hGALK1m; [4]) [%] | IC50 (hGALK1m; [5]) | IC50 (recombinant human GALK1; [6]) [nM] | IC50 (recombinant human GALK1; [7]) [nM] | Sol. [1] [µg/mL] | Metab. Stabil. (m) ([2]; microsomal half-life) | half-life [2] [min] | IC50 (recombinant mouse GALK1; [8]) [nM] | IC50 (recombinant mouse GALK1; [9]) [nM] | Papp (PAMPA permeability; [10]) [×10⁻⁶ cm/s] | fold improvement of potency (IC50) versus parent compound (hGALK1m; increase in potency relative to the unsubstituted parent) [fold] | Sol. ([1]; aqueous kinetic solubility) [µg/mL] | Metab. Stabil. (m) ([2]; microsomal stability half-life) | Emax (hGALK1m; [11]) [%] | IC50 (hGALK1m; [12]) [nM] | Perm. (1 × 10^−6 cm/sec) (PAMPA permeability) | Perm. (1 × 10^−6 cm/sec) (PAMPA permeability; PAMPA) | IC50 (hGALK1m; Table 17, amide group optimization, no unit in table) [nM]
COc1ccc(C2N=C(Nc3nc4ccc(F)cc4o3)NC(C)=C2C(=O)Nc2cc(C(=O)O)ccn2)c(Cl)c1 (racemic) [Compound 46, 2-(4-(2-chloro-4-methoxyphenyl)-2-((6-fluorobenzo[d]oxazol-2-yl)amino)-6-methyl-1,4-dihydropyrimidine-5-carboxamido)isonicotinic acid] | < 10 | little effect | 100 | 300 nM | 430 | 430 | 8.3 | >30 | < 10 | 3060 | 3060 |  |  |  |  |  |  |  |  | 
CC1=C(C(=O)Nc2cc(C(=O)O)ccn2)C(c2ccc(C)cc2Cl)N=C(Nc2nc3ccc(F)cc3o2)N1 (racemic) [Compound 50, 2-(4-(2-chloro-4-methylphenyl)-2-((6-fluorobenzo[d]oxazol-2-yl)amino)-6-methyl-1,4-dihydropyrimidine-5-carboxamido)isonicotinic acid] | < 10 |  | 100 | 136 nM | 390 | 390 | 2.8 | >30 | < 10 | 3060 | 3060 | < 1.5 | 2 |  |  |  |  |  |  | 
CC1=C(C(=O)NCc2cnn(C)c2)C(c2ccc(C)cc2Cl)N=C(Nc2nc3cccc(N)c3o2)N1 (racemic) [Compound 83, 2-((7-aminobenzo[d]oxazol-2-yl)amino)-4-(2-chloro-4-methylphenyl)-6-methyl-N-((1-methyl-1H-pyrazol-4-yl)methyl)-1,4-dihydropyrimidine-5-carboxamide] |  |  |  | 47 nM | 220 | 220 | 4.47 | 14.13 |  | 2170 | 2170 | 25.3 |  |  |  |  |  |  |  | 
CCn1cc(CNC(=O)C2=C(C)NC(Nc3nc4ccc(F)c(N)c4o3)=NC2c2ccc(C)cc2Cl)cn1 (racemic) [Compound 125, 2-((7-amino-6-fluorobenzo[d]oxazol-2-yl)amino)-4-(2-chloro-4-methylphenyl)-N-((1-ethyl-1H-pyrazol-4-yl)methyl)-6-methyl-1,4-dihydropyrimidine-5-carboxamide] |  |  |  | 23 nM and 22 nM | 50 | 50 |  |  |  | 610 | 610 | 410 |  | <1 | 14.08 |  |  |  |  | 
CC1=C(C(=O)Nc2cc(C(=O)O)ccn2)C(c2ccccc2Cl)N=C(Nc2nc3ccccc3o2)N1 (racemic) [Compound 194, 2-(2-(benzo[d]oxazol-2-ylamino)-4-(2-chlorophenyl)-6-methyl-1,4-dihydropyrimidine-5-carboxamido)isonicotinic acid] | < 10 |  |  | 970 nM | 1080 | 1080 |  |  | < 10 | 6850 | 6850 | < 1 |  | >74 | >30 | 88 |  |  |  | 
CC1=C(C(=O)NCc2cn(C)cn2)C(c2ccccc2Cl)N=C(Nc2nc3ccccc3o2)N1 (racemic) [Compound 233, 2-(benzo[d]oxazol-2-ylamino)-4-(2-chlorophenyl)-6-methyl-N-((1-methyl-1H-imidazol-4-yl)methyl)-1,4-dihydropyrimidine-5-carboxamide] | < 10 |  |  |  | 1090 | 1090 |  |  | < 10 | 7690 | 7690 | 868 |  | 26.6 | 14.56 | 90 | 770 |  |  | 
CC1=C(C(=O)Nc2cc(C(=O)O)ccn2)C(c2ccccc2Cl)N=C(Nc2nc3cc(C)ccc3o2)N1 (stereo not drawn) [Compound 4, 2-(4-(2-chlorophenyl)-6-methyl-2-((5-methylbenzo[d]oxazol-2-yl)amino)-1,4-dihydropyrimidine-5-carboxamido)isonicotinic acid] | < 10 | slightly improved the potency | 100 | 611 nM | 1370 |  | <1 | >30 | < 10 | 3060 | 3060 |  |  |  |  |  |  | <1 1 × 10^−6 cm/sec |  | 
CC1=C(C(=O)Nc2cc(C(=O)O)ccn2)C(c2ccccc2Cl)N=C(Nc2nc3c(F)cccc3o2)N1 (stereo not drawn) [Compound 8, 2-(4-(2-chlorophenyl)-6-methyl-2-((4-fluorobenzo[d]oxazol-2-yl)amino)-1,4-dihydropyrimidine-5-carboxamido)isonicotinic acid] |  |  | 100 |  |  | 3850 |  |  |  | 21700 | 21700 |  |  |  |  |  | 3300 |  |  | 
CC1=C(C(=O)Nc2cc(C(=O)O)ccn2)C(c2ccccc2Cl)N=C(Nc2nc3cc(F)ccc3o2)N1 (stereo not drawn) [Compound 13, 2-(4-(2-chlorophenyl)-2-((5-fluorobenzo[d]oxazol-2-yl)amino)-6-methyl-1,4-dihydropyrimidine-5-carboxamido)isonicotinic acid] | < 10 |  | 100 |  | 3430 |  |  |  | < 10 | 17200 | 17200 |  |  |  |  |  | 3600 |  |  | 
CC1=C(C(=O)Nc2cc(C(=O)O)ccn2)C(c2cccc(F)c2Cl)N=C(Nc2nc3ccc(F)cc3o2)N1 (stereo not drawn) [Compound 48, 2-(4-(2-chloro-3-fluorophenyl)-2-((6-fluorobenzo[d]oxazol-2-yl)amino)-6-methyl-1,4-dihydropyrimidine-5-carboxamido)isonicotinic acid] | < 10 | compromised the potency | 100 |  | 4850 | 4850 |  |  | < 10 | 15300 | 15300 |  |  |  |  |  | 1800 |  |  | 
CC1=C(C(=O)Nc2ncc(C(=O)O)s2)C(c2ccccc2Cl)N=C(Nc2nc3ccccc3o2)N1 (stereo not drawn) [Compound 199, 2-(2-(benzo[d]oxazol-2-ylamino)-4-(2-chlorophenyl)-6-methyl-1,4-dihydropyrimidine-5-carboxamido)thiazole-5-carboxylic acid] | < 10 |  |  |  | 1720 | 1720 |  |  | < 10 |  |  |  |  | >75 | >30 | 91 |  |  | <1 1 × 10^−6 cm/sec | 1700
CC1=C(C(=O)Nc2cc(C(=O)O)ccn2)C(c2ccccc2Cl)N=C(Nc2nc3ccccc3o2)N1 (stereo not drawn) [R-enantiomer of Compound 194] |  |  |  |  |  |  |  |  |  |  |  |  |  |  |  |  | 15000 |  |  | 
CC1=C(C(=O)NCc2cnn(C)c2)[C@@H](c2ccc(C)cc2Cl)N=C(Nc2nc3cccc(N)c3o2)N1 [S-enantiomer of Compound 83] |  |  |  | 29 nM |  |  |  |  |  |  |  |  |  |  |  |  |  |  |  | 
CC1=C(C(=O)Nc2cc(C(=O)O)ccn2)[C@@H](c2ccccc2Cl)N=C(Nc2nc3ccccc3o2)N1 [S-enantiomer of Compound 194] |  |  |  | 300 nM |  |  |  |  |  |  |  |  |  |  |  |  |  |  |  | 
